Reference: patent US20040259932A1, “Method and compound to reduce the incidence of diabetes in a subject with chronic heart failure” (priority 2003, published 2004)
Entries after “also recorded” stand apart in the source; their conditions may differ.

What was measured:
[1] = tested on: patients with hypertension; details: cited from earlier work; for patients who developed diabetes: losartan compared with atenolol
Elderly = details: candesartan compared with placebo; nonsignificant; cited from earlier work
hypertensive population = details: captopril compared with a β-blocker or a diuretic; cited from earlier work
[2] = compared with metoprolol; cited from earlier work
[3] = tested on: patients with left ventricular dysfunction; assay: Retrospective analysis of Montreal Heart Institute patients of the SOLVD trials: new-onset diabetes (FPG≧126 mg/dL at 2 visits); assay type: in vivo, human
Text: The patients from the Montreal Heart Institute who were randomized in the SOLVD trials were included in this study. SOLVD was a multicenter, double-blind, randomized, placebo-controlled trial that assessed the effect of the ACE inhibitor enalapril on survival in patients with left ventricular dysfunction (ejection fraction≦35%). The details of the trial have been described elsewhere.^12 Briefly, the prevention trial included 4228 patients with asymptomatic left ventricular dysfunction, and the treatment trial randomized 2569 patients with congestive heart failure from June 1986 to August 1991. Patients were randomized to enalapril (5 to 20 mg/day) or placebo. Exclusion criteria included age >80 years, unstable angina pectoris, myocardial infarction in the previous month, severe pulmonary disease, renal insufficiency (creatinine level>177 μmol/L [2 mg/dL]), and intolerance to ACE inhibitor or current ACE inhibitor use. Follow-up visits were scheduled 2 and 6 weeks after randomization and every 4 months until the end of the study, for a mean follow-up of 3.4 and 3.1 years for the treatment and prevention trials, respectively.
Baseline characteristics, past medical history, and medication profiles at the time of enrolment into the SOLVD trials were obtained from the SOLVD databases. Fasting plasma glucose (FPG) was not collected for research purposes in the SOLVD trials. However, follow-up of patients in SOLVD involved regular blood samples, including FPG, at almost every research visit. Accordingly, the medical file of each patient was reviewed, and FPG results were collected. Chart reviewers were blinded to treatment allocation.
A diagnosis of new onset diabetes during the follow-up period was defined according to the American Diabetes Association criteria^13 as a FPG≧126 mg/dL (7.0 mmol/L) at 2 different visits. For the purpose of the present study, the visits in which FPG≧126 occurred during infection, trauma, or acute myocardial infarction were not included.
Participants with diabetes at baseline (history of diabetes or FPG≧126 mg/dL at screening visit) were excluded. The study population was further divided among patients with impaired FPG at baseline (110 mg/dL[6.1 mmol/L]≦FPG<126mg/dL [7.0 mmol/L]) and those with normal FPG at baseline (FPG<110 mg/dL).
The baseline characteristic of the 2 groups were compared using Student's t test for continuous variables and the X^2 test for categorical variables. Incidence of diabetes in the 2 groups was compared with the X^2 test. Time to occurrence of diabetes during the follow-up was analyzed with Kaplan-Meier curves and compared with the log-rank test. To analyze the effect of the treatment (enalapril) on development of diabetes, a Cox regression analysis was used to take into account the effect of potential confounding baseline variables (age, sex, current smoking, history of hypertension, and weight) and time-dependent variables (systolic blood pressure; diastolic blood pressure; and use of β-blockers, diuretics, calcium-channel blockers, antiplatelet agents, or antiarrhythmics). Cox proportional-hazard models were performed for each variable, with treatment (enalapril) forced in all models. Variables with a P≦0.2 were included in a multivariate Cox proportional hazard model. […] Subgroup analyses were conducted with the X^2 test. In the particular subgroup of patients with impaired FPG at baseline, Kaplan-Meier curves were performed. Preliminary assumptions were verified before all analyses. P<0.05 was considered significant. All analyses were performed using SAS version 8.2 (SAS Institute, Inc).

hypertensive rats = details: cited from earlier work
[4] = tested on: obese, hypertensive, and dyslipidemic patients; details: given for 12 weeks; cited from earlier work
[5] = tested on: high-risk patients with no evidence of left ventricular dysfunction; details: cited from earlier work

For `CC(C)NCC(O)COc1ccc(CC(N)=O)cc1` (stereo not drawn) [atenolol], the “patients who developed diabetes” value [1] is listed as 8%.
For `CCOc1nc2cccc(C(=O)O)c2n1Cc1ccc(-c2ccccc2-c2nnn[nH]2)cc1` [candesartan], the “relative reduction in the incidence of diabetes” value (Elderly) is listed as 20%.
In the case of `C[C@H](CS)C(=O)N1CCC[C@H]1C(=O)O` [captopril], the “relative risk of developing diabetes (RR)” value (hypertensive population) is listed as 0.86.
For `COc1ccccc1OCCNCC(O)COc1cccc2[nH]c3ccccc3c12` (stereo not drawn) [carvedilol], the “effect on insulin sensitivity” value [2] is given as “favorable effect on insulin sensitivity”.
In the case of `CCOC(=O)[C@H](CCc1ccccc1)N[C@@H](C)C(=O)N1CCC[C@H]1C(=O)O` [enalapril], the “probability of remaining free from diabetes during follow-up” value ([3]; Kaplan-Meier, enalapril vs placebo, P<0.0001, FIG. 1) is reported as “significantly higher”, the “New cases of diabetes, %” value ([3]; Prevention arm of the trial (n = 198)) is reported as 6.0% and the “Absolute Risk Reduction” value ([3]; Prevention arm of the trial (n = 198), enalapril vs placebo) is reported as 13.4%. The “New cases of diabetes, %” value ([3]; Treatment arm of the trial (n = 93)) was 5.7%, the “Absolute Risk Reduction” value ([3]; Treatment arm of the trial (n = 93), enalapril vs placebo) was 24.3% and the “relative risk [RR] of new-onset diabetes” value ([3]; enalapril vs placebo, total population) was 0.26. For the same compound, the “New cases of diabetes, %” value ([3]; impaired FPG at baseline, IFG (n = 55)) was 3.3%, the “Absolute Risk Reduction” value ([3]; impaired FPG at baseline, IFG (n = 55), enalapril vs placebo) was 45% and the “Absolute Risk Reduction” value ([3]; impaired FPG at baseline, IFG (n = 55), enalapril vs placebo, listed as Enalapril) was 44.7%. For the same compound, the “Hazard Ratio for development of diabetes” value ([3]; multivariate analysis, Cox regression model, 95% confidence intervals 0.10 to 0.46) was 0.22, the “New cases of diabetes, %” value ([3]; normal FPG at baseline, NFG (n = 236)) was 6.6% and the “Absolute Risk Reduction” value ([3]; normal FPG at baseline, NFG (n = 236), enalapril vs placebo) was 10.7%. The “risk of developing diabetes (in words)” value ([3]; patients with left ventricular systolic dysfunction) was “markedly reduced the risk of developing diabetes; also recorded: markedly reduces the risk of developing diabetes mellitus”, the “New cases of diabetes, %” value ([3]; total population (n = 291), enalapril 5 to 20 mg/day, mean follow-up 2.9 years) was 5.9% and the “Absolute Risk Reduction” value ([3]; total population (n = 291), enalapril vs placebo) was 16.5%. The “number of patients to treat to prevent one new case of diabetes” value ([3]; treated for 2.9 years) was 6 patients, the insulin sensitivity (hypertensive rats) was “improved insulin sensitivity” and the insulin sensitivity [4] was “improved insulin sensitivity”.
In the case of `CCCCc1nc(Cl)c(CO)n1Cc1ccc(-c2ccccc2-c2nn[nH]n2)cc1` [losartan], the “patients who developed diabetes” value [1] is listed as 6% and the “RR of developing diabetes” value ([1]; losartan vs atenolol) is listed as 0.75.
For `CCOC(=O)[C@H](CCc1ccccc1)N[C@@H](C)C(=O)N1[C@H](C(=O)O)C[C@@H]2CCC[C@@H]21` [ramipril], the “RR of developing diabetes” value ([5]; ramipril vs placebo) is given as 0.66, the incidence of diabetes ([5]; treatment period of 4.5 years) is given as 3.6% and the “reduction of the relative risk of developing diabetes” value ([5]; treatment period of 4.5 years, ramipril vs placebo) is given as 34%.
